Columns and labels:
Human Melanocortin (MC4) = molecular target: T1, Human Melanocortin (MC4) (Homo sapiens, UniProt P32245); assay: Radioligand binding, human melanocortin MC4 membranes, FlashPlate, [125I]-NDP-αMSH; conditions: compound at 10 μM; human melanocortin MC4 membranes
T1 construct: purchased Perkin Elmer Biosignal
How it was run: (§1)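 Cloned human receptor membranes were coated onto FlashPlate wells and incubated with radioligand and compound (added from a 0.5 mM DMSO daughter plate) for 1 hour at room temperature in the dark. Scintillation counting gave percent inhibition, with DMSO defining total and reference ligand defining non-specific binding.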

[1] = molecular target: T2, Human melanin-concentrating hormone (MCH1) (Homo sapiens, UniProt Q99705); assay: Radioligand binding, human melanin-concentrating hormone MCH1 membranes, FlashPlate, [125I]-S36057; conditions: compound at 10 μM; human MCH1 membranes
T2 construct: purchased Perkin Elmer Biosignal
T2 sequence (Q99705 whole entry): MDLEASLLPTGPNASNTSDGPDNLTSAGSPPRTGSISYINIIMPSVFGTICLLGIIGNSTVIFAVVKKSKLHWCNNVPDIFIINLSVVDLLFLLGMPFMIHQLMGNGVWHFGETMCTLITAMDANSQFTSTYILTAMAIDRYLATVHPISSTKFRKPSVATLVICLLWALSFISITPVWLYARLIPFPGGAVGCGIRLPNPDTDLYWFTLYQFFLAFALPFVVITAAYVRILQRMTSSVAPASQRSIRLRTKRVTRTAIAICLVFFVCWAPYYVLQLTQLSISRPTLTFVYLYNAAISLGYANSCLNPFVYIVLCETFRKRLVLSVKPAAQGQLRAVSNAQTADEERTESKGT
How it was run: as §1

Human μ-opioid (MOP) = molecular target: T3, Human μ-opioid (MOP) (Homo sapiens, UniProt P35372); assay: Radioligand binding, human μ-opioid (MOP) membranes, FlashPlate, [3H]-Naloxone; conditions: compound at 10 μM; human μ-opioid (MOP) membranes
T3 construct: purchased Perkin Elmer Biosignal
T3 sequence (P35372 whole entry): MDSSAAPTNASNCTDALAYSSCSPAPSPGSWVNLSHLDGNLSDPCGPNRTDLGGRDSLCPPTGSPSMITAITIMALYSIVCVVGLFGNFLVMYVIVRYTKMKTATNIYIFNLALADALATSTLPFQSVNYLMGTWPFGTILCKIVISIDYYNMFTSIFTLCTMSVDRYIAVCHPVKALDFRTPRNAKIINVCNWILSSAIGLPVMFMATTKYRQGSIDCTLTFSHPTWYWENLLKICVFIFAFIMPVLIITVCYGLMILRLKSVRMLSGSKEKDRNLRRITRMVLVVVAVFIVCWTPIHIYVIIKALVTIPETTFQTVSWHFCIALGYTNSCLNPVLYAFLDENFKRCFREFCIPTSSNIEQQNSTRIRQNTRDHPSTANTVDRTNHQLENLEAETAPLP
How it was run: as §1

Human δ-opioid (DOP) = molecular target: T4, Human δ-opioid (DOP) (Homo sapiens, UniProt P41143); assay: Radioligand binding, human δ-opioid (DOP) membranes, FlashPlate, [3H]-Bremazocine; conditions: compound at 10 μM; human δ-opioid (DOP) membranes
T4 construct: purchased Perkin Elmer Biosignal
T4 sequence (P41143 whole entry): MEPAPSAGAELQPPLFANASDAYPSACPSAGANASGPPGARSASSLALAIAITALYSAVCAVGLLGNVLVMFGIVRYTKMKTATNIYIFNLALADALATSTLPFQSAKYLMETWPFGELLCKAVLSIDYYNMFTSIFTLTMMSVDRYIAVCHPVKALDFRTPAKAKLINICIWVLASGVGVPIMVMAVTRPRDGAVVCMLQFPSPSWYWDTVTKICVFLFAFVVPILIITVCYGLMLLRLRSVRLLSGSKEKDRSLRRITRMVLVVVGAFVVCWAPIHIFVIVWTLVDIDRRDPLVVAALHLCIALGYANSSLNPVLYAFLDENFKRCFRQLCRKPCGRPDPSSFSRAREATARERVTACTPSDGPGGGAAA
How it was run: as §1

[2] = molecular target: T5, Human neuropeptide Y (NPY-Y1) (Homo sapiens, UniProt P25929); assay: Radioligand binding, human neuropeptide Y NPY-Y1 membranes, FlashPlate, [125I]-PYY; conditions: compound at 10 μM; human NPY-Y1 membranes
T5 construct: purchased Perkin Elmer Biosignal
T5 sequence (P25929 1-384): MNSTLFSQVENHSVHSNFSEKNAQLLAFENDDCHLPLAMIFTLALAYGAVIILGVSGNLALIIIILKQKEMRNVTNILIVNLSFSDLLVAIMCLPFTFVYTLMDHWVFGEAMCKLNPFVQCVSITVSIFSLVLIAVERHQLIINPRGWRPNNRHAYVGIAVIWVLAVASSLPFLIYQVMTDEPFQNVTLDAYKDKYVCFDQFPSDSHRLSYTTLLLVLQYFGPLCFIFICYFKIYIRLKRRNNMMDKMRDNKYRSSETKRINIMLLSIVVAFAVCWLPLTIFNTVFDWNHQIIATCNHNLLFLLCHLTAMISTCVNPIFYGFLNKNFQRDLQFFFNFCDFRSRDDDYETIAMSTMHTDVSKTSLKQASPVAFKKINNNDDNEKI
How it was run: as §1

Human neurokinin (NK1) = molecular target: T6, Human neurokinin (NK1) (Homo sapiens, UniProt P25103); assay: Radioligand binding, human neurokinin NK1 membranes, filtration, [125I]-Substance P; conditions: compound at 10 μM; human neurokinin NK1 membranes
T6 construct: purchased Perkin Elmer Biosignal
T6 sequence (P25103 whole entry): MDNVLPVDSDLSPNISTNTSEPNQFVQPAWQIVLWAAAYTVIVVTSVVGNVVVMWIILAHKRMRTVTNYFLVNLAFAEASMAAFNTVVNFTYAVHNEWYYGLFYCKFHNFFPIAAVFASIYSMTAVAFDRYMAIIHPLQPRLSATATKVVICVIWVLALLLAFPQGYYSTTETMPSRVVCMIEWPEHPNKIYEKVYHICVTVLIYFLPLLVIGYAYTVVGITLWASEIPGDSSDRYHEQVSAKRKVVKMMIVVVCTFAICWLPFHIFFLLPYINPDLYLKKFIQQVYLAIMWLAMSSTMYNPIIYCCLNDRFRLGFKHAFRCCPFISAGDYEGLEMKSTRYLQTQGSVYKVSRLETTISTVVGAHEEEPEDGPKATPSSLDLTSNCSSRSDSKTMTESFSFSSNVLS
How it was run: (§2)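 Filtration binding on cloned human receptor membranes (1 Unit/well), [125I]-Substance P for NK1 and [3H]-Diprenorphine for KOP, 1 h at room temperature. Filters PEI-presoaked, washed with cold 50 mM Tris-HCl pH 7.4, counted by scintillation; percent inhibition calculated, reference ligand defining non-specific binding.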

Human melanocortin (MC5) = molecular target: T7, Human melanocortin (MC5) (Homo sapiens, UniProt P33032); assay: Radioligand binding, human melanocortin MC5 membranes, FlashPlate, [125I]-NDP-αMSH; conditions: compound at 10 μM; human melanocortin MC5 membranes
T7 construct: purchased Perkin Elmer Biosignal
T7 sequence (P33032 whole entry): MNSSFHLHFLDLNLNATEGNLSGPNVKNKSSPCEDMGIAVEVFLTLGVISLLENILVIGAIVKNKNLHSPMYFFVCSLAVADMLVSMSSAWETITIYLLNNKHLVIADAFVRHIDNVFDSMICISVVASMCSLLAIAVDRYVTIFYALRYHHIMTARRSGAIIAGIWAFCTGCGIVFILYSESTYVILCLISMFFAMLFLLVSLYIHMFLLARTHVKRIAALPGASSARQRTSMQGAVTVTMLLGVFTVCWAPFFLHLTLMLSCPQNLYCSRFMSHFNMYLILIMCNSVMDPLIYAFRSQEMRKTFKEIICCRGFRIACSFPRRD
How it was run: as §1

Human opioid (ORL1) = molecular target: T8, Human opioid (ORL1) (Homo sapiens, UniProt P41146); assay: Radioligand binding, human opioid ORL1 membranes, FlashPlate, [125I]-Nociceptin; conditions: compound at 10 μM; human ORL1 membranes
T8 construct: purchased Perkin Elmer Biosignal
T8 sequence (P41146 whole entry): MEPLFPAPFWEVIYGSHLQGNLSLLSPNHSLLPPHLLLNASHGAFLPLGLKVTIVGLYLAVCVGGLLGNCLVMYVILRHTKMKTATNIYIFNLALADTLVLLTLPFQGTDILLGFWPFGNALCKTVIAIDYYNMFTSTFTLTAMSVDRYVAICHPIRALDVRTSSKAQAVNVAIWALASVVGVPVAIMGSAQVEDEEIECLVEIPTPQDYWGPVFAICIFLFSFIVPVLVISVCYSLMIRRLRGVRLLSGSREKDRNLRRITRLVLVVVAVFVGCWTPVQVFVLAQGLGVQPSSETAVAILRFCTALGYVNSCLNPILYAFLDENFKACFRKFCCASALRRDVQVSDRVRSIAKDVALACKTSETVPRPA
How it was run: as §1

Mouse urotensin (mUR2) = molecular target: T9, Mouse urotensin (mUR2) (Mus musculus, UniProt Q8VIH9); assay: Radioligand binding, mouse urotensin mUR2 membranes, FlashPlate, [125I]-Urotensin II; conditions: compound at 10 μM; mouse urotensin mUR2 membranes
T9 construct: purchased Perkin Elmer Biosignal
T9 sequence (Q8VIH9 1-385): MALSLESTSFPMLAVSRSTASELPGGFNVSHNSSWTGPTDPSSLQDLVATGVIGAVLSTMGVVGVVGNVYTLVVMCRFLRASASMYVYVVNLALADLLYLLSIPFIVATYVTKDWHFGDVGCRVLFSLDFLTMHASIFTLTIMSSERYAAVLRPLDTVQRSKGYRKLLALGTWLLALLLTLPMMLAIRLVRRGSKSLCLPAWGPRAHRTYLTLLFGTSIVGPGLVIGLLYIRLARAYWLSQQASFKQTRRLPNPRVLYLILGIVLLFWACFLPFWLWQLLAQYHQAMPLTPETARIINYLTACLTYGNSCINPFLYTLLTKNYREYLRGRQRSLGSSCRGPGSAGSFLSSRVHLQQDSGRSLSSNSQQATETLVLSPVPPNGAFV
How it was run: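 Cloned mouse urotensin (mUR2) receptor membranes from Perkin Elmer Biosignal were immobilized in FlashPlate microplates using a proprietary coating. Each well got 19.5 μl buffer, then 0.5 μl of DMSO, reference ligand, or compound. Adding 5 μl of [125I]-Urotensin II, diluted to 5× final concentration in binding buffer, started binding. Plates were sealed with TopSeal-A and incubated 1 hour at room temperature in the dark. Wells were counted for 30 seconds each on a TopCount after a 60-second delay, and percentage inhibition was calculated.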

Human κ-Opioid (KOP) = molecular target: T10, Human κ-Opioid (KOP) (Homo sapiens, UniProt P41145); assay: Radioligand binding, human κ-opioid (KOP) membranes, filtration, [3H]-Diprenorphine; conditions: compound at 10 μM; human κ-opioid (KOP) membranes
T10 construct: purchased Perkin Elmer Biosignal
T10 sequence (P41145 whole entry): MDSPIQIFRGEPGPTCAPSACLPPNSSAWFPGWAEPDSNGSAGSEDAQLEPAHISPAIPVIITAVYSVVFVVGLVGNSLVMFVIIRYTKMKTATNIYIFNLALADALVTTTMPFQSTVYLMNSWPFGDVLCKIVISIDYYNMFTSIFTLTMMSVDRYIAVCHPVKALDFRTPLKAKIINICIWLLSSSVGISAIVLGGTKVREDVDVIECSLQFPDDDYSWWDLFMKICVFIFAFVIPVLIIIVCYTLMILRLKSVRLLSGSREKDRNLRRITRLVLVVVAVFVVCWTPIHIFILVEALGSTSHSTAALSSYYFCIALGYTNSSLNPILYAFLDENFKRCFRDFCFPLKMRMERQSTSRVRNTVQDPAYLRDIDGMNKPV
How it was run: as §2

Human Melanocortin (MC3) = molecular target: T11, Human Melanocortin (MC3) (Homo sapiens, UniProt P41968); assay: Radioligand binding, human melanocortin MC3 membranes, FlashPlate, [125I]-NDP-αMSH; conditions: compound at 10 μM; human melanocortin MC3 membranes
T11 construct: purchased Perkin Elmer Biosignal
T11 sequence (P41968 whole entry): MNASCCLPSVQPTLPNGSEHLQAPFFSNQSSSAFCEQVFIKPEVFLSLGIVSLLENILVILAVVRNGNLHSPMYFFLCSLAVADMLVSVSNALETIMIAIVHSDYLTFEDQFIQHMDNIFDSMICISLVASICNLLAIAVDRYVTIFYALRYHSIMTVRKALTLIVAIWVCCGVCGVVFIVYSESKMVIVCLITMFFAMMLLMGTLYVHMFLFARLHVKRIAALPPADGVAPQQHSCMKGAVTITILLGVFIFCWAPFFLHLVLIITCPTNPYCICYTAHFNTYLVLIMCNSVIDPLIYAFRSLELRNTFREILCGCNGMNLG
How it was run: as §1

T1 sequence (P32245 whole entry): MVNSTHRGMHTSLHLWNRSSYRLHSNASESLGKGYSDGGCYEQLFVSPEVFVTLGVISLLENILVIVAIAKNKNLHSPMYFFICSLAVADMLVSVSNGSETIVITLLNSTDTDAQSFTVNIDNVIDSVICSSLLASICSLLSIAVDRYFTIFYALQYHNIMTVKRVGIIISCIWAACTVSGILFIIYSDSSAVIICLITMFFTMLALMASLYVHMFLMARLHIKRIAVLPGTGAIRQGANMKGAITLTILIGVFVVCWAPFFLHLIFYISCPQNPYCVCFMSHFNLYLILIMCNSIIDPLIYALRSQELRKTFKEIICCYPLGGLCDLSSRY

| Compound | A4 radioligand binding inhibition (Human Melanocortin (MC4)) | A6 radioligand binding inhibition [1] | A7 radioligand binding inhibition (Human μ-opioid (MOP)) | A1 radioligand binding inhibition (Human δ-opioid (DOP)) | A9 radioligand binding inhibition [2] | A8 radioligand binding inhibition (Human neurokinin (NK1)) | A5 radioligand binding inhibition (Human melanocortin (MC5)) | A10 radioligand binding inhibition (Human opioid (ORL1)) | A11 radioligand binding inhibition (Mouse urotensin (mUR2)) | A2 radioligand binding inhibition (Human κ-Opioid (KOP)) | A3 radioligand binding inhibition (Human Melanocortin (MC3)) |
| --- | --- | --- | --- | --- | --- | --- | --- | --- | --- | --- | --- |
| COC[C@H]1OC(OCc2ccc3ccccc3c2)[C@H](NC(=O)CCNC(=N)N)[C@@H](OCc2ccc(-c3ccccc3)cc2)[C@@H]1O (stereo partly drawn) [compound 16] | + (“+” indicates greater than 50% inhibition at 10 μM) | + (“+” indicates greater than 50% inhibition at 10 μM) | + (“+” indicates greater than 50% inhibition at 10 μM) | + (“+” indicates greater than 50% inhibition at 10 μM) | − (“−” indicates less than 50% inhibition at 10 μM) | + (“+” indicates greater than 50% inhibition at 10 μM) | + (“+” indicates greater than 50% inhibition at 10 μM) | − (“−” indicates less than 50% inhibition at 10 μM) | − (“−” indicates less than 50% inhibition at 10 μM) | + (“+” indicates greater than 50% inhibition at 10 μM) | + (“+” indicates greater than 50% inhibition at 10 μM) |
| COC[C@H]1OC(OCc2ccc3ccccc3c2)[C@H](NC(=O)CNC(=N)N)[C@@H](OCc2ccc3ccccc3c2)[C@@H]1O (stereo partly drawn) [compound 17] | + (“+” indicates greater than 50% inhibition at 10 μM) | + (“+” indicates greater than 50% inhibition at 10 μM) | + (“+” indicates greater than 50% inhibition at 10 μM) | − (“−” indicates less than 50% inhibition at 10 μM) | − (“−” indicates less than 50% inhibition at 10 μM) | + (“+” indicates greater than 50% inhibition at 10 μM) | + (“+” indicates greater than 50% inhibition at 10 μM) | − (“−” indicates less than 50% inhibition at 10 μM) | − (“−” indicates less than 50% inhibition at 10 μM) | − (“−” indicates less than 50% inhibition at 10 μM) | − (“−” indicates less than 50% inhibition at 10 μM) |
| COC[C@H]1OC(OCc2ccc3ccccc3c2)[C@H](NC(=O)CCNC(=N)N)[C@@H](OCc2ccc3ccccc3c2)[C@@H]1O (stereo partly drawn) [compound 18] | − (“−” indicates less than 50% inhibition at 10 μM) | + (“+” indicates greater than 50% inhibition at 10 μM) | + (“+” indicates greater than 50% inhibition at 10 μM) | − (“−” indicates less than 50% inhibition at 10 μM) | − (“−” indicates less than 50% inhibition at 10 μM) | + (“+” indicates greater than 50% inhibition at 10 μM) | + (“+” indicates greater than 50% inhibition at 10 μM) | − (“−” indicates less than 50% inhibition at 10 μM) | − (“−” indicates less than 50% inhibition at 10 μM) | − (“−” indicates less than 50% inhibition at 10 μM) | − (“−” indicates less than 50% inhibition at 10 μM) |
| COC[C@H]1OC(OCc2ccc3ccccc3c2)[C@H](NC(=O)CCNC(=N)N)[C@@H](OCc2ccccc2)[C@@H]1O (stereo partly drawn) [compound 19] | − (“−” indicates less than 50% inhibition at 10 μM) | − (“−” indicates less than 50% inhibition at 10 μM) | + (“+” indicates greater than 50% inhibition at 10 μM) | − (“−” indicates less than 50% inhibition at 10 μM) | − (“−” indicates less than 50% inhibition at 10 μM) | + (“+” indicates greater than 50% inhibition at 10 μM) | − (“−” indicates less than 50% inhibition at 10 μM) | − (“−” indicates less than 50% inhibition at 10 μM) | − (“−” indicates less than 50% inhibition at 10 μM) | − (“−” indicates less than 50% inhibition at 10 μM) | − (“−” indicates less than 50% inhibition at 10 μM) |
| COC[C@H]1OC(OCc2ccc3ccccc3c2)[C@H](NC(=O)CCCN)[C@@H](OCc2ccccc2)[C@@H]1O (stereo partly drawn) [compound 20] | − (“−” indicates less than 50% inhibition at 10 μM) | − (“−” indicates less than 50% inhibition at 10 μM) | − (“−” indicates less than 50% inhibition at 10 μM) | − (“−” indicates less than 50% inhibition at 10 μM) | − (“−” indicates less than 50% inhibition at 10 μM) | + (“+” indicates greater than 50% inhibition at 10 μM) | − (“−” indicates less than 50% inhibition at 10 μM) | − (“−” indicates less than 50% inhibition at 10 μM) | − (“−” indicates less than 50% inhibition at 10 μM) | − (“−” indicates less than 50% inhibition at 10 μM) | − (“−” indicates less than 50% inhibition at 10 μM) |
| COC[C@H]1OC(OCc2ccc3ccccc3c2)[C@H](NC(=O)CCCNC(=N)N)[C@@H](OCc2ccccc2)[C@@H]1O (stereo partly drawn) [compound 21] | − (“−” indicates less than 50% inhibition at 10 μM) | − (“−” indicates less than 50% inhibition at 10 μM) | − (“−” indicates less than 50% inhibition at 10 μM) | − (“−” indicates less than 50% inhibition at 10 μM) | − (“−” indicates less than 50% inhibition at 10 μM) | + (“+” indicates greater than 50% inhibition at 10 μM) | − (“−” indicates less than 50% inhibition at 10 μM) | − (“−” indicates less than 50% inhibition at 10 μM) | − (“−” indicates less than 50% inhibition at 10 μM) | − (“−” indicates less than 50% inhibition at 10 μM) | − (“−” indicates less than 50% inhibition at 10 μM) |
